Assays:
Hras102 rats = test: MNU-induced mammary carcinogenesis in 102-strain transgenic rats; assay type: in vivo, rat
Method: (§1) MNU, at a dose of 50 mg/kg, was intravenously injected into Hras128 and wild type rats, at 50 days old, to perform histopathological examination of the incidence of mammary tumor and to screen the presence or absence of any point mutation of the transgene and endogenous c-Ha-ras gene.
(§2) Mammary tumor became palpable in the Hras128 strain rats, 5 weeks after MNU administration, and then multiple adenocarcinoma developed in all (100%) of the mammary glands of all the transgenic rats at week 8, but that in the wild type rats only 29.2% even at week 8 (see Table 1 and FIG. 2). In 102-strain rats, multiple adenocarcinoma was observed 16 weeks after MNU administration.

[1] = test system: wild type rats (non Tg rats); test: MNU-induced mammary carcinogenesis in wild type rats (128 line); assay type: in vivo, rat; conditions: strain 128, 'MNU Treatment' cell '—' (wild type rats per text), week 8, 24 rats
Method: as §1, §2

[2] = test system: endogenous Ha-ras gene (rat); test: Mutation analysis (PCR-SSCP) of the endogenous Ha-ras gene in carcinogen-induced tumors; conditions: MNU-induced mammary tumors, SSCP
From the text: Single-stranded DNA confirmation polymorphism (SSCP) analysis is able to be performed according to the followings; T. Sekiya. Protein, Nucleic Acid, Enzyme, vol. 41, No. 5, 539, 1996.
Possible mutations in exons 1 to 4 of the human Ha-ras proto-oncogene and exons 1 and 2 of the endogenous gene were examined by PCR-SSCP analysis. Using human or rat specific primers, only two bands appeared on the gals. With common primers (cHras21F and cHras21R) for Ha-ras exon 2 of both man and rats, four bands were detected. Human or rat specific bands were identified by signals from normal DNA of the transgenic and non-transgenic rats. DNA from T24 having a mutation in human Ha-ras of codon 12, GGC to GTC and that from pSK2 having a mutation in the codon 61, CAG to CTG, gave clearly mobility shifted bands in the assays (FIG. 4). However, a GGC to GAC mutation of the transgene enriched by PCR after RFLP analysis as described below, which was frequently observed in tumors induced by MNU in human Ha-ras proto-oncogene transgenic mice, could not be detected by SSCP -PCR analysis. In 44 tumors from Hras128 transgenic rats treated with MNU, mutations were not detected in exons 1 to 4 of the introduced human and endogenous c-Ha-ras genes under any of four SSCP conditions (at 4 or 20° C., with or without 5% glycerol) (Table 1). In contrast, a relatively high frequency (6 of 21 tumors of non-transgenic rats (28.6%) of GGA to GAA mutations in codon 12 of the endogenous Ha-ras gene was detected in mammary carcinomas of non-transgenic using PCR-SSCP analysis followed by direct sequencing (Table 1).

Hras128 rats = test: MNU-induced mammary carcinogenesis in Hras128 transgenic rats; assay type: in vivo, rat
Method: as §1, §2

[3] = test system: human c-Ha-ras proto-oncogene (transgene); test: Mutation analysis (RFLP, PCR-SSCP) of the transgene in carcinogen-induced tumors; conditions: MNU-induced mammary tumors, Hras128, 44 tumors examined
From the text: Single-stranded DNA confirmation polymorphism (SSCP) analysis is able to be performed according to the followings; T. Sekiya. Protein, Nucleic Acid, Enzyme, vol.
Possible mutations in exons 1 to 4 of the human Ha-ras proto-oncogene and exons 1 and 2 of the endogenous gene were examined by PCR-SSCP analysis.
RFLP analysis is able to perform according to the followings; Nagase, et al., Protein, Nucleic Acid, Enzyme, vol.

[4] = test system: wild type rats (non Tg rats); test: MNU-induced mammary carcinogenesis in wild type rats (102 line); assay type: in vivo, rat; conditions: strain 102, 'MNU Treatment' cell '—' (probably wild rats), week 18, 13 rats
Method: as §1, §2

[5] = strain 102, MNU performed, week 18 after injection, 23 rats
[6] = strain 128, MNU performed, 50 mg/kg i.v., week 8 after injection, 22 rats

CN(N=O)C(N)=O [MNU, N-methyl-N-nitrosourea]
Multiple adenocarcinoma observed, time after MNU administration (Hras102 rats; 102-strain rats, MNU 50 mg/kg i.v.): 16 weeks | No. of tumor-bearing rats (Hras102 rats; [5]): 20 | No. of tumor-bearing rats (%) (Hras102 rats; [5]): (87.0) % | No. of tumor/rat (Hras102 rats; [5]): 5.83 ± 5.31 | No. of tumor-bearing rats [1]: 7 | No. of tumor/rat [1]: 0.46 ± 0.93 | Tumors with endogenous (rat) exon 1 mutation, number ([2]; Hras128, 44 tumors examined): 0 | Tumors with endogenous (rat) exon 2 mutation, number ([2]; Hras128, 44 tumors examined): 0 | Tumors with endogenous (rat) exon 2 mutation, number ([2]; Wild, 21 tumors examined): 0 | Mammary tumor became palpable, time after MNU administration (Hras128 rats; Hras128 rats, MNU 50 mg/kg i.v. at 50 days old): 5 weeks | Sensitivity of Tg rats to MNU-induced mammary carcinogenesis (Hras128 rats; Tg rats vs wild type): very sensitive | No. of tumor-bearing rats (Hras128 rats; [6]): 22 | No. of tumor/rat (Hras128 rats; [6]): 14.0 ± 6.42 | Tumors with transgene exon 2 (codon 61) mutation, number [3]: 0 | Tumors with transgene exon 3 mutation, number [3]: 0 | Tumors with transgene exon 4 mutation, number [3]: 0 | No. of tumor-bearing rats [4]: 10 | No. of tumor-bearing rats (%) [4]: (76.9) % | No. of tumor/rat [4]: 3.00 ± 2.86

Source: patent publication US6576811B1, “Transgenic rat with human normal type c-Ha-ras gene” (National Cancer Center Research Institute, priority 1998, dated 2003)
